Results as given in the Kinase Knowledgebase extract (Sharma et al. 2016).

Target: EGFR (UniProt P00533)
Sequence (P00533 whole entry, looked up): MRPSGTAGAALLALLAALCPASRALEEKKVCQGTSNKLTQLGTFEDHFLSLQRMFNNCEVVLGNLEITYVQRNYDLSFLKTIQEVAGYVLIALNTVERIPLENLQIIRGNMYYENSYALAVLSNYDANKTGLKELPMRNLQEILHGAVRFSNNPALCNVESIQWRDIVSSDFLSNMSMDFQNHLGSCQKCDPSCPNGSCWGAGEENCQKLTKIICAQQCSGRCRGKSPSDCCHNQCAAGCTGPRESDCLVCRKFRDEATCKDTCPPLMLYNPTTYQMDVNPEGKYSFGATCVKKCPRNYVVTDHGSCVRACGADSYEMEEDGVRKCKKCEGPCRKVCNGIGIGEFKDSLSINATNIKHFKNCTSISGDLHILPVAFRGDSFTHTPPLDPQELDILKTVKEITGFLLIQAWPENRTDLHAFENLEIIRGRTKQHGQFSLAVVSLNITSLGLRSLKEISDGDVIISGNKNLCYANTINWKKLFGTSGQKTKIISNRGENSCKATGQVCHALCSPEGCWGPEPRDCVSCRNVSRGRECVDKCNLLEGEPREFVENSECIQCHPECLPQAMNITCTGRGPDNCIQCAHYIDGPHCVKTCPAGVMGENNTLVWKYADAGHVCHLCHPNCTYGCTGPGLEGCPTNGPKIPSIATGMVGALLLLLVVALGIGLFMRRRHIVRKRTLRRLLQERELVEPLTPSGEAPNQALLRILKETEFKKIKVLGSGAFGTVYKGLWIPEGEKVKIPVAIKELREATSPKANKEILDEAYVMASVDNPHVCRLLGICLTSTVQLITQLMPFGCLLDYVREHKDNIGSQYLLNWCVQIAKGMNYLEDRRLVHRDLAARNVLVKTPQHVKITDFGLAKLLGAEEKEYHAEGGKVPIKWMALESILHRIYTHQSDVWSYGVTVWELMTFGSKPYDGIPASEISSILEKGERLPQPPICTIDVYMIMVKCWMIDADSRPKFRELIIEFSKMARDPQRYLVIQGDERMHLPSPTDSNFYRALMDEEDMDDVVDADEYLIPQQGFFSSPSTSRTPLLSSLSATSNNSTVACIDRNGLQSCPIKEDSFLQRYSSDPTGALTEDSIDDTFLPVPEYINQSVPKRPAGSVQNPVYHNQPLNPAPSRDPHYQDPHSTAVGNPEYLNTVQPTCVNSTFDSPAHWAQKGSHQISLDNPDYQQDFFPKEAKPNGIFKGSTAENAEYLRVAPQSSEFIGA

IC50: ≤ 10 µM
SMILES: Fc1cccc(COc2ccc(Nc3ncncc3C#Cc3ccccn3)cc2Cl)c1
